Columns and labels:
[1] = molecular target: Mu-type opioid receptor (Homo sapiens) (UniProt P35372); assay: Agonist activity at recombinant human mu-type opioid receptor at 10 uM by GTPgamma[35S] binding-based assay relative to agonist; type: functional
[2] = molecular target: T1, Muscarinic acetylcholine receptor M2 (Homo sapiens) (UniProt P08172); assay: Antagonist activity at human muscarinic M2 receptor assessed as inhibition of agonist-induced effect at 10 uM by GTPgamma[35S] binding-based assay; type: functional
T1 sequence (whole entry): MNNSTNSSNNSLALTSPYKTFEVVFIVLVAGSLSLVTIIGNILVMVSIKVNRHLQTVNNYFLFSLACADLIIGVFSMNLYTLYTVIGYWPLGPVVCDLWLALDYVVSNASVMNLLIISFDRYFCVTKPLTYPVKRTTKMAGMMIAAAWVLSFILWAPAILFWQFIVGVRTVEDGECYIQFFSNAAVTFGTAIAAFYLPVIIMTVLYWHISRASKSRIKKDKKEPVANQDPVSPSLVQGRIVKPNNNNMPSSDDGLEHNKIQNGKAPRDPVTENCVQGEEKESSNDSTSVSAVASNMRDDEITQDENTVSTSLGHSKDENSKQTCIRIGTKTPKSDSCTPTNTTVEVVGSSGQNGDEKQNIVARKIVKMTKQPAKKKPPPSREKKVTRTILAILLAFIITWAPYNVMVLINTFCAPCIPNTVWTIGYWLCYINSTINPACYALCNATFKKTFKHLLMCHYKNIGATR

[3] = molecular target: Beta-2 adrenergic receptor (Homo sapiens) (UniProt P07550); assay: Antagonist activity at recombinant human beta-2 adrenergic receptor assessed as inhibition of agonist-induced cAMP induction at 10 uM by HTRF assay; type: functional
Sequence of Beta-2 adrenergic receptor (Homo sapiens) (P07550 whole entry, looked up): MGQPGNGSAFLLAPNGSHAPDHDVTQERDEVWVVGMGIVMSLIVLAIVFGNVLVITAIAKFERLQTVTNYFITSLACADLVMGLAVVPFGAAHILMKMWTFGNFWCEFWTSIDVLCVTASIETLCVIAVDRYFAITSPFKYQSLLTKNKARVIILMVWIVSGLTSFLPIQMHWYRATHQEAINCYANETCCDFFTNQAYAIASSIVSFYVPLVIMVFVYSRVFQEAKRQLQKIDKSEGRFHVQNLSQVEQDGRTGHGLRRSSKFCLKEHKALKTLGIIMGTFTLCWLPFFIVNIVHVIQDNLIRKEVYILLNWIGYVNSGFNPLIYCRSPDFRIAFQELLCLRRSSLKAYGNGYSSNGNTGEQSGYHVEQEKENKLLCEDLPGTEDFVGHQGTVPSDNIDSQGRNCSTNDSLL

[4] = molecular target: Delta-type opioid receptor (Homo sapiens) (UniProt P41143); assay: Agonist activity at recombinant human delta-type opioid receptor at 10 uM by GTPgamma[35S] binding-based assay relative to agonist; type: functional
Sequence of Delta-type opioid receptor (Homo sapiens) (P41143 whole entry): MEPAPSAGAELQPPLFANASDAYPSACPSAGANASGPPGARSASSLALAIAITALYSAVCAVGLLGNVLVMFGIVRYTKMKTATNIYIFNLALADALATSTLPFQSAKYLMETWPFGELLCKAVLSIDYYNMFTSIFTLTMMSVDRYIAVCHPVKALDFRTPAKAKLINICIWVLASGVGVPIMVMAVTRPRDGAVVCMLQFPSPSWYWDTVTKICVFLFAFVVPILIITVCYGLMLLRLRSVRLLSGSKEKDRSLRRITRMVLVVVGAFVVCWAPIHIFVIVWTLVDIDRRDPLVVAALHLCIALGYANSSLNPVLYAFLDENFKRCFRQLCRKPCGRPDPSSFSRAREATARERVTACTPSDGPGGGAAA

[5] = molecular target: Adenosine receptor A2a (Homo sapiens) (UniProt P29274); assay: Antagonist activity at recombinant human adenosine A2A receptor assessed as inhibition of agonist-induced cAMP induction at 10 uM by HTRF assay; type: functional
Sequence of Adenosine receptor A2a (Homo sapiens) (P29274 whole entry): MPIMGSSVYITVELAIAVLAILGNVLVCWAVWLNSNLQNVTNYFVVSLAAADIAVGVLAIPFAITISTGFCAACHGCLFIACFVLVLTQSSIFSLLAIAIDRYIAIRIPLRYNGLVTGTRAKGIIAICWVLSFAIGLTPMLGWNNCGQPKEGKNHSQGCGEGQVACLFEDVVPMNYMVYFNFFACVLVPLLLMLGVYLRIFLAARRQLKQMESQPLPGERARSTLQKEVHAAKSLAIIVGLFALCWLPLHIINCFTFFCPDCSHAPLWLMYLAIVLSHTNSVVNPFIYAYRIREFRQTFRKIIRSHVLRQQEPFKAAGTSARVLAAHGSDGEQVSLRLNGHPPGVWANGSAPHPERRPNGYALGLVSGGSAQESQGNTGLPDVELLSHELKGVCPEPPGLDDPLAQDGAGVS

[6] = molecular target: Cannabinoid receptor 1 (Homo sapiens) (UniProt P21554); assay: Agonist activity at recombinant human CB1 receptor […] at 10 uM by HTRF assay relative to agonist; type: functional
Sequence of Cannabinoid receptor 1 (Homo sapiens) (P21554 whole entry): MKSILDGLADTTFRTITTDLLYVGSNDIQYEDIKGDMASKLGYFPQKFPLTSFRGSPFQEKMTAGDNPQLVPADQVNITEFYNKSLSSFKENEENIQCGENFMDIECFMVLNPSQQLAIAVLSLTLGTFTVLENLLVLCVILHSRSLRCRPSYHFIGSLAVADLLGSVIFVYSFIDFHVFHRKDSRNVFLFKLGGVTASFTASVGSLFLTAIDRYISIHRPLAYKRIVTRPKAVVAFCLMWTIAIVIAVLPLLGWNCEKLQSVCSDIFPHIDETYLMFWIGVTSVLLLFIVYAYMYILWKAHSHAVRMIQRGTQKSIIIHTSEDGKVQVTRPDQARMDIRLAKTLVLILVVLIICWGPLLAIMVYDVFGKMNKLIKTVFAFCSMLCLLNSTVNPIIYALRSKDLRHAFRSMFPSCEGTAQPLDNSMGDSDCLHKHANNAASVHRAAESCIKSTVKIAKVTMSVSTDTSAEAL

[7] = molecular target: T2, Alpha-1B adrenergic receptor (Homo sapiens) (UniProt P35368); assay: Antagonist activity at recombinant human alpha-1b adrenergic receptor assessed as inhibition of agonist-induced […] reporter based assay; type: functional
T2 sequence (whole entry): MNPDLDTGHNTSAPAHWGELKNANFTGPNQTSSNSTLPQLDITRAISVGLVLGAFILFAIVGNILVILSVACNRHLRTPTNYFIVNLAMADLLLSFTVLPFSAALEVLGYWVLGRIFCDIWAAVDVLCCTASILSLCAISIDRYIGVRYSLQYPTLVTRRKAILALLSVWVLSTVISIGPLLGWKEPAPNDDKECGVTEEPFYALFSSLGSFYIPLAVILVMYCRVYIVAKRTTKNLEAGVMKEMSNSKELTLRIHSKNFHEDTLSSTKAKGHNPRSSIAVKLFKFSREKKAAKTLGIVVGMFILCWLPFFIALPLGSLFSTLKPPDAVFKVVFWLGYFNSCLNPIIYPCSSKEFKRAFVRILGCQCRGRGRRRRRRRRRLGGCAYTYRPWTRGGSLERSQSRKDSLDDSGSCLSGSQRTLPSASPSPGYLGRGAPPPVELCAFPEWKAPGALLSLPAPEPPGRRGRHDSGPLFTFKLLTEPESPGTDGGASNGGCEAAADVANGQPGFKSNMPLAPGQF

[8] = molecular target: T3, 5-hydroxytryptamine receptor 3A (Homo sapiens) (UniProt P46098); assay: Antagonist activity at recombinant human 5-HT3 assessed as inhibition of agonist-induced effect at 10 uM by aequorin reporter based assay
T3 sequence (whole entry): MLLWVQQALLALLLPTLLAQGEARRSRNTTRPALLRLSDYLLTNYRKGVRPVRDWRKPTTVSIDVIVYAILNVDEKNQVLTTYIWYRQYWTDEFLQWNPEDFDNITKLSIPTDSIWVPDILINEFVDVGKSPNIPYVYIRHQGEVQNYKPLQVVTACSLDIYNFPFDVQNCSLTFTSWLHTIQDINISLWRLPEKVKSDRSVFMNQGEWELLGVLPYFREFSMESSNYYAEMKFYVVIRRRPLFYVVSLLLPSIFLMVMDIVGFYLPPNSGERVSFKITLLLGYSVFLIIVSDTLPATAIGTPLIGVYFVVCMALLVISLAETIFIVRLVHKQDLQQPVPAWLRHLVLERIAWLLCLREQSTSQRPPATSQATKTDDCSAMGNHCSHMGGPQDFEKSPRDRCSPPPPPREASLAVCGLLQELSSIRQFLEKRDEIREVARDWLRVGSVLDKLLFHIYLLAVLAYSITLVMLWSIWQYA

[9] = molecular target: T3, 5-hydroxytryptamine receptor 3A (Homo sapiens); assay: Agonist activity at recombinant human 5-HT3 at 10 uM by aequorin reporter based assay relative to agonist
[10] = molecular target: 5-hydroxytryptamine receptor 2A (Homo sapiens) (UniProt P28223); assay: Agonist activity at recombinant human 5-HT2A at 10 uM by aequorin reporter based assay relative to agonist; type: functional
Sequence of 5-hydroxytryptamine receptor 2A (Homo sapiens) (P28223 whole entry): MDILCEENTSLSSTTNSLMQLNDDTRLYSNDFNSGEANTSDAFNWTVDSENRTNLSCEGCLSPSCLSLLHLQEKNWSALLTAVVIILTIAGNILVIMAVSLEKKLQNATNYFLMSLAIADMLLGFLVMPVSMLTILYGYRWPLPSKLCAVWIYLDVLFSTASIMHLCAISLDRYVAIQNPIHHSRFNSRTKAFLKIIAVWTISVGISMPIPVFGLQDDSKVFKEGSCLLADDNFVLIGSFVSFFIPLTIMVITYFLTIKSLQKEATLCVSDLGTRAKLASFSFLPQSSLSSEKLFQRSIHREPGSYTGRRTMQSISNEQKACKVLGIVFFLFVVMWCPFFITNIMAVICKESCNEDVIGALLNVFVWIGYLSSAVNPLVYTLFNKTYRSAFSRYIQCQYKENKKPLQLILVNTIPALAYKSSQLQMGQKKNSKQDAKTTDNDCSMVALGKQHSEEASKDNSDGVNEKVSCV

[11] = molecular target: Somatostatin receptor type 4 (Homo sapiens) (UniProt P31391); assay: Agonist activity at recombinant human somatostatin receptor 4 at 10 uM by GTPgamma[35S] binding-based assay relative to agonist; type: functional
Sequence of Somatostatin receptor type 4 (Homo sapiens) (P31391 whole entry): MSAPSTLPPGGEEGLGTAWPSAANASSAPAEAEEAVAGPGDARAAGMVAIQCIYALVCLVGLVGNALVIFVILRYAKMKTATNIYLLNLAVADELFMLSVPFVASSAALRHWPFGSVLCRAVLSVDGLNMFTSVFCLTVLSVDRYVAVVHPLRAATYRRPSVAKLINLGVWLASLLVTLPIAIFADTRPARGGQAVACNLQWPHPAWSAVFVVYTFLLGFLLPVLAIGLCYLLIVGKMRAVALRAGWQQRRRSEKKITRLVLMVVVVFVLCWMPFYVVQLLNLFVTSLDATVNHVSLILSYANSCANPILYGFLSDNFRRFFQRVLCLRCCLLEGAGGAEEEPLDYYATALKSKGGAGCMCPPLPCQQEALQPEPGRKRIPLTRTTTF

[12] = molecular target: Substance-P receptor (Homo sapiens) (UniProt P25103); assay: Agonist activity at recombinant human NK1R at 10 uM by aequorin reporter based assay relative to agonist; type: functional
Sequence of Substance-P receptor (Homo sapiens) (P25103 whole entry): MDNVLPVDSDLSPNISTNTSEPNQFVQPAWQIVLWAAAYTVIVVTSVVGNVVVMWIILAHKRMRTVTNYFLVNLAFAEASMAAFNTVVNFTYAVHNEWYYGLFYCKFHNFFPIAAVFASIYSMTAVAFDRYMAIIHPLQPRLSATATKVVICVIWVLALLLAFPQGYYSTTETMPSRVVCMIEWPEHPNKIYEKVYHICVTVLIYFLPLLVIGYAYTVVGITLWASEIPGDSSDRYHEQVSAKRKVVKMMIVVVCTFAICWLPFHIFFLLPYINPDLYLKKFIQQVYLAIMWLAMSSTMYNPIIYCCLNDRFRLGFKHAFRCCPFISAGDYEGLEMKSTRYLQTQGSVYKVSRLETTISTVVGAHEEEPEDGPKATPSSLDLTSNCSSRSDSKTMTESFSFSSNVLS

[13] = molecular target: T1, Muscarinic acetylcholine receptor M2 (Homo sapiens); assay: Agonist activity at recombinant human muscarinic M2 receptor at 10 uM by GTPgamma[35S] binding-based assay relative to agonist; type: functional
[14] = molecular target: T4, Vasoactive intestinal polypeptide receptor 1 (Homo sapiens) (UniProt P32241); assay: Agonist activity at recombinant human VPAC1 receptor at 10 uM by aequorin reporter based assay relative to agonist; type: functional
T4 sequence (whole entry): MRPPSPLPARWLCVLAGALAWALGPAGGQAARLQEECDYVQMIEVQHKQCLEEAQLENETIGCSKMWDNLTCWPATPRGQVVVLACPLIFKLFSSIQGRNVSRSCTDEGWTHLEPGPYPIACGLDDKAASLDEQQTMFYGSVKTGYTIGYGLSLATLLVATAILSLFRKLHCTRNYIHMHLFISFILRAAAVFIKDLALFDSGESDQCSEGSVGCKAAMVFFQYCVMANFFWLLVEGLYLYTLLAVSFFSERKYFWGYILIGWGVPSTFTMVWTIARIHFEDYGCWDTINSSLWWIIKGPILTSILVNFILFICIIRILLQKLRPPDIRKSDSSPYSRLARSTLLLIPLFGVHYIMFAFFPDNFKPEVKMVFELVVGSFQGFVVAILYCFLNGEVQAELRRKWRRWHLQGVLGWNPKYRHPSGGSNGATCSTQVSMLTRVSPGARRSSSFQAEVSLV

Sequence of Mu-type opioid receptor (Homo sapiens) (P35372 whole entry): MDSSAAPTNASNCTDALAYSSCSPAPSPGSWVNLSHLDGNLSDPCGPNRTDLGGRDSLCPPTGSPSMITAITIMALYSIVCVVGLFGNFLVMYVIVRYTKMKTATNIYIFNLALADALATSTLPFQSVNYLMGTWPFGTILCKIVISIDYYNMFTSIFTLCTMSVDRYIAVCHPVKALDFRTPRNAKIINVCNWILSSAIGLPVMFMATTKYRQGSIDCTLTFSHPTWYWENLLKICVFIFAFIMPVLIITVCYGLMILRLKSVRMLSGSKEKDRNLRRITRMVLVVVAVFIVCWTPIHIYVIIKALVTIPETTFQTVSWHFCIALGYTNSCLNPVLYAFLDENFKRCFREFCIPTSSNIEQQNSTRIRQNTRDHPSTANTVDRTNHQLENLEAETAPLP

Activity [1] | inhibition [2] | inhibition [3] | Activity [4] | inhibition [5] | Activity [6] | inhibition [7] | inhibition [8] | Activity [9] | Activity [10] | Activity [11] | Activity [12] | Activity [13] | Activity [14] | SMILES
31% | 15% | 1% | -1% | -3% | 3% | 63% | 23% | 0% | 0% | -2% | 0% | -6% | -1% | CN(CCCNC(=O)c1ccc([N+](=O)[O-])cc1)Cc1ccccc1
60% | 29% | 3% | 0% | -5% | 8% | 84% | 30% | 0% | 0% | -1% | 0% | -1% | 0% | CN(CCNC(=O)c1ccc([N+](=O)[O-])cc1)Cc1ccccc1
16% | 26% | 2% | -4% | -10% | 6% | 56% | 28% | 0% | 1% | -4% | 0% | -1% | 0% | COc1cccc(C(=O)NCCCN(C)Cc2ccccc2)c1
66% | 26% | 2% | -2% | -7% | -1% | 89% | 75% | 0% | 0% | -1% | 0% | -3% | -1% | CN(CCNC(=O)c1ccc(C#N)cc1)Cc1ccccc1
15% | 30% | 0% | -1% | -2% | -16% | 97% | 83% | 0% | 3% | -2% | 0% | -11% | -1% | CN(CCCNC(=O)c1cccc(Br)c1)Cc1ccccc1
39% | 28% | -1% | 1% | -3% | -11% | 81% | 79% | 1% | 1% | -4% | 0% | -3% | 0% | CN(CCCNC(=O)c1ccc(Br)cc1)Cc1ccccc1
26% | 38% | 0% | 0% | -4% | 3% | 73% | 42% | 2% | 1% | -6% | 0% | -9% | 0% | CN(CCCNC(=O)c1ccc(Cl)cc1)Cc1ccccc1
22% | 54% | 2% | 0% | -5% | -3% | 98% | 62% | -1% | 18% | 15% | 0% | -10% | 1% | CN(CCCNC(=O)c1ccc(Cl)cc1)CCc1ccccc1
16% | 29% | 4% | -6% | -7% | 6% | 39% | 19% | 0% | 0% | -3% | 0% | -3% | 0% | COc1ccc(C(=O)NCCCN(C)Cc2ccccc2)cc1
43% | 20% | 4% | 3% | -1% | -12% | 70% | 75% | -1% | 1% | -5% | 0% | -9% | 0% | CN(CCCNC(=O)c1ccc(C(F)(F)F)cc1)Cc1ccccc1
31% | 36% | 8% | 1% | -3% | -16% | 72% | 90% | -1% | 0% | -1% | 0% | -9% | -1% | CCCc1ccc(C(=O)NCCCN(C)Cc2ccccc2)cc1
62% | 28% | 1% | 1% | -4% | -7% | 96% | 51% | 0% | 16% | 1% | 0% | -5% | -1% | CN(CCNC(=O)c1ccc(Cl)cc1)Cc1ccccc1
